From EP0931078B1, “NOVEL TRICYCLIC PIPERIDINYL COMPOUNDS USEFUL AS INHIBITORS OF FARNESYL-PROTEIN TRANSFERASE” (SCHERING CORPORATION, priority 1996, dated 1998)
Like-named read-outs stand apart in the source and are kept apart here.

Molecular target: T1, partially purified rat brain famesyl protein transferase (FPT) (Rattus norvegicus, UniProt Q02293+Q04631)
T1 construct: partially purified rat brain famesyl protein transferase (FPT); from tissue; host or cells: rat brain
Assay: In vitro enzyme assay: inhibition of Ras-CVLS farnesylation by farnesyl protein transferase (FPT)
Format: biochemical
Description: • 1. In vitro enzyme assays: FPT IC50 (inhibition of famesyl protein transferase, in vitro enzyme assay) are determined by the methods disclosed in […] or WO 95/10516. […] Cell-based assay. COS IC50 values refer to the COS cells activity inhibition of Ras processing, are determined by the methods disclosed in […] or WO 95/10516.

[1] = unit printed as uM (Examples 49-54)

T1 sequence (Q02293 whole entry, one chain of several): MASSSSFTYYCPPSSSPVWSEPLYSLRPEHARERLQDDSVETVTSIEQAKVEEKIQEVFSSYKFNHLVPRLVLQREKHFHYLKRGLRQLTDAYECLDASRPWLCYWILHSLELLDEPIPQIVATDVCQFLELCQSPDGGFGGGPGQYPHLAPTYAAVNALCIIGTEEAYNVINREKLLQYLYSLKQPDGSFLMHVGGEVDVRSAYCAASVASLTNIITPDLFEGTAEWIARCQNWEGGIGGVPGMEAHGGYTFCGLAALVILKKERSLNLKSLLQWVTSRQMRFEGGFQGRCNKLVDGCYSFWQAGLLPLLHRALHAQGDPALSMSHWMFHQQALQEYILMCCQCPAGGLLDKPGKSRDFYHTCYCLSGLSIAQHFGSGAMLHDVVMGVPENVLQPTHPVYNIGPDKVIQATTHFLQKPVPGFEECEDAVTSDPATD

Structure (SMILES) | IC50 [1] | other results
O=C(CC1CCCN(C2c3ccc(Cl)cc3CCc3cc(Br)cnc32)C1)Nc1cccnc1 (stereo not shown) [Example 19, 1-(3-Bromo-8-chloro-6,11-dihydro-5H-benzo[5,6]cyclohepta[1,2-b]pyridin-11-yl)-N-(3-pyridinyl)-3-piperidineacetamide] | – | inhibition at 1.1 µM (read-out: FPT Inhibition): 15%
O=C(CC1CCN(C2c3ccc(Cl)cc3CCc3cc(Br)cnc32)CC1)NCc1cccnc1 (stereo not shown) [Example 43, 1-(3-Bromo-8-chloro-6,11-dihydro-5H-benzo[5,6]cyclohepta[1,2-b]pyridin-11-yl)-N-(3-pyridylmethyl)-4-piperidineacetamide] | – | inhibition at 0.22 µM (read-out: FPT INH): 43%
O=C(CCC1CCN(C2c3ccc(Cl)cc3CCc3cc(Br)cnc32)CC1)NCc1cccnc1 (stereo not shown) [Example 44, 1-(3-Bromo-8-chloro-6,11-dihydro-5H-benzo[5,6]cyclohepta[1,2-b]pyridin-11-yl)-N-(3-pyridylmethyl)-4-piperidinepropanamide] | – | inhibition at 0.35 µM (read-out: FPT INH): 39%
O=C(CC1CCN(C2c3ncc(Br)cc3CCc3cc(Cl)cc(Br)c32)CC1)NCc1cccnc1 (stereo not shown) [Example 45, 1-(8-Chloro-3,10-dibromo-6,11-dihydro-5H-benzo[5,6]cycloheptal[1,2-b]pyridin-11-yl)-N-(3-pyridylmethyl)-4-piperidineacetamide] | – | IC50: 0.042 µM
CN(C)CC(=O)N1CCC(CNC(=O)[C@@H]2CCCN(C3c4ncc(Br)cc4CCc4cc(Cl)cc(Br)c43)C2)CC1 (stereo partly shown) [Example 53, 1-(3,10-Dibromo-8-chloro-6,11-dihydro-5H-benzo[5,6]cyclohepta[1,2-b]pyridin-11-yl)-N-[[1-[(dimethylamino)acetyl]-4-piperidinyl]methyl]-3-piperidinecarboxamide] | 0.11 µM | –
O=C(NCCCN1CCCC1=O)C1CCCN(C2c3ncc(Br)cc3CCc3cc(Cl)cc(Br)c32)C1 (stereo not shown) [Example 54, 1-(3,10-Dibromo-8-chloro-6,11-dihydro-5H-benzo[5,6]cyclohepta[1,2-b]pyridin-11-yl)-N-[3-(2-oxo-1-pyrrolidinyl)propyl]-3-piperidinecarboxamide] | 0.1 µM | –
O=C(NCc1cccnc1)C1CCCCN1C1c2ncc(Br)cc2CCc2cc(Cl)cc(Br)c21 (stereo not drawn) [Isomer C3 amide] | – | IC50: 0.3 µM

Further lines, with some results ahead:

IC50 [1] | Structure (SMILES) | other results
0.58 µM | O=C(NC1CC1)[C@@H]1CCCN(C2c3ncc(Br)cc3CCc3cc(Cl)cc(Br)c32)C1 (stereo partly shown) [Example 49, N-cyclopropyl-1-(3,10-dibromo-8-chloro-6,11-dihydro-5H-benzo[5,6]cyclohepta[1,2-b]pyridin-11-yl)-3-piperidinecarboxamide] | –
0.96 µM | CNC(=O)[C@@H]1CCCN(C2c3ncc(Br)cc3CCc3cc(Cl)cc(Br)c32)C1 (stereo partly shown) [Example 50, 1-(3,10-Dibromo-8-chloro-6,11-dihydro-5H-benzo[5,6]cyclohepta[1,2-b]pyridin-11-yl)-N-methyl-3-piperidinecarboxamide] | –
0.081 µM | O=C(NCCc1cccnc1)[C@@H]1CCCN(C2c3ncc(Br)cc3CCc3cc(Cl)cc(Br)c32)C1 (stereo partly shown) [Example 52, 1-(3,10-Dibrorno-8-chforo-6,11-dihydro-5H-benzo[5,6]cyclohepta[1,2-b]pyridin-11-yl)-N-[2-(3-pyridinyl)ethyl]-3-piperidinecarboxamide] | –
